Inhibition and percent of control data for three compounds are collected here from ChEMBL document CHEMBL5696442, “Discovery of type II inhibitors of TGFβ-activated kinase 1 (TAK1) and mitogen-activated protein kinase kinase kinase kinase 2 (MAP4K2)” (J Med Chem, 2015).

Experiment [1] deals with Glycogen synthase kinase-3 alpha (Homo sapiens) (UniProt P49840). The experiment is described as follows: Inhibition of GSK3A Lys2 labeling site in human Huh-7 cell lysate at 1 uM by KiNativ Profiling analysis relative to control. The experiment is classed as subcellular.
The target in experiment [2] is Cyclin-dependent kinase 1 (Homo sapiens) (UniProt P06493). The experiment in a line: Inhibition of CDC2 Lys2 labeling site in human Huh-7 cell lysate at 1 uM by KiNativ Profiling analysis relative to control. The experiment is classed as subcellular.
Experiment [3] has as its target Ribosomal protein S6 kinase alpha-1 (Homo sapiens) (UniProt Q15418). The experiment in a line: Inhibition of RSK1 domain 1 ACT labeling site in human Huh-7 cell lysate at 1 uM by KiNativ Profiling analysis relative to control. The experiment is classed as subcellular.
Experiment [4] deals with Calcium/calmodulin-dependent protein kinase type II subunit gamma (Homo sapiens) (UniProt Q13555). The experiment in a line: Inhibition of CaMK2g Lys1 labeling site harbouring KTSTQEYAAKIINTKK in human A-375 cells at 0.5 uM by KiNativ Profiling analysis relative to control. Format: cell-based.
For experiment [5], the target named is Tyrosine-protein kinase SYK (Homo sapiens) (UniProt P43405). The experiment is described as follows: Inhibition of SYK (unknown origin) at 1 uM by Ambit Kinomescan binding assay relative to control.
The target in experiment [6] is Calcium/calmodulin-dependent protein kinase kinase 2 (Homo sapiens) (UniProt Q96RR4). The experiment in a line: Inhibition of CaMKK2 Lys1 labeling site in human A-375 cells at 0.05 uM by KiNativ Profiling analysis relative to control. The experiment is classed as cell-based.
For experiment [7], the target named is Serine/threonine-protein kinase 33 (Homo sapiens) (UniProt Q9BYT3). The experiment in a line: Inhibition of STK33 (unknown origin) at 1 uM by Ambit Kinomescan binding assay relative to control.
The target in experiment [8] is Platelet-derived growth factor receptor alpha (Homo sapiens) (UniProt P16234). The experiment in a line: Inhibition of PDGFRA (unknown origin) at 10 uM by Ambit Kinomescan binding assay relative to control.
For experiment [9], the target named is Ribosomal protein S6 kinase alpha-2 (Homo sapiens) (UniProt Q15349). The experiment is described as follows: Inhibition of C-terminal RPS6KA2 kinase domain 2 (unknown origin) at 10 uM by Ambit Kinomescan binding assay.
The target in experiment [10] is T1, Phosphatidylinositol 4,5-bisphosphate 3-kinase catalytic subunit delta isoform (Homo sapiens) (UniProt O00329).
T1 sequence (whole entry): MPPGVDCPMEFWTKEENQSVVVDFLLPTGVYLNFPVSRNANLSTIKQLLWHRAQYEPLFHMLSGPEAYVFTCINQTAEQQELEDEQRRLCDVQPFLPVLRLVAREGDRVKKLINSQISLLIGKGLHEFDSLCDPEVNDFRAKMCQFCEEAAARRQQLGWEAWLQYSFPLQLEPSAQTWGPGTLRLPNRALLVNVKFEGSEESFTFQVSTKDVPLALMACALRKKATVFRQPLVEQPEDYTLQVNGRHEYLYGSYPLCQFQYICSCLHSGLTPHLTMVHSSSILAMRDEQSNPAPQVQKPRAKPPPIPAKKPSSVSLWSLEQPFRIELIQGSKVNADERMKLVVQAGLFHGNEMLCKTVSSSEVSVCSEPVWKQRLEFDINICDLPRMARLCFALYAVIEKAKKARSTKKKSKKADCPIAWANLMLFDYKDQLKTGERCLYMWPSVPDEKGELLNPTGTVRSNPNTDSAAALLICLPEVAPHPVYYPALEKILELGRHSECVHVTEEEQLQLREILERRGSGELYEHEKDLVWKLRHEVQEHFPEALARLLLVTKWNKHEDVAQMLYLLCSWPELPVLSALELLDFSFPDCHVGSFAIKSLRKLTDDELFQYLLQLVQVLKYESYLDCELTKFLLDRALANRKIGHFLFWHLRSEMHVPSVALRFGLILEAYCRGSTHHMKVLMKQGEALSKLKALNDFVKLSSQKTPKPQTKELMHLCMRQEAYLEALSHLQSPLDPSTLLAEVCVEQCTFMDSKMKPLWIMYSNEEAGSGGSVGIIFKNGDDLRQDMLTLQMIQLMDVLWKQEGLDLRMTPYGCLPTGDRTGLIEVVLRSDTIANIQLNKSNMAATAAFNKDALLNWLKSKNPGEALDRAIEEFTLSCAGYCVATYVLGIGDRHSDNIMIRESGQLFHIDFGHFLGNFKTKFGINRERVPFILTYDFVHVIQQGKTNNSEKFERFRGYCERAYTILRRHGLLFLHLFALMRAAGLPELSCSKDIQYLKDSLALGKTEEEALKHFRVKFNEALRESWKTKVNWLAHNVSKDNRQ
The experiment in a line: Inhibition of PIK3CD (unknown origin) at 10 uM by Ambit Kinomescan binding assay.

Experiment [11] deals with Serine/threonine-protein kinase PLK1 (Homo sapiens) (UniProt P53350). The experiment in a line: Inhibition of PLK1 Lys2 labeling site in human A-375 cells at 5 uM by KiNativ Profiling analysis relative to control. The experiment is classed as cell-based.
Experiment [12] concerns the target T2, Mitogen-activated protein kinase 12 (Homo sapiens) (UniProt P53778).
T2 sequence (whole entry): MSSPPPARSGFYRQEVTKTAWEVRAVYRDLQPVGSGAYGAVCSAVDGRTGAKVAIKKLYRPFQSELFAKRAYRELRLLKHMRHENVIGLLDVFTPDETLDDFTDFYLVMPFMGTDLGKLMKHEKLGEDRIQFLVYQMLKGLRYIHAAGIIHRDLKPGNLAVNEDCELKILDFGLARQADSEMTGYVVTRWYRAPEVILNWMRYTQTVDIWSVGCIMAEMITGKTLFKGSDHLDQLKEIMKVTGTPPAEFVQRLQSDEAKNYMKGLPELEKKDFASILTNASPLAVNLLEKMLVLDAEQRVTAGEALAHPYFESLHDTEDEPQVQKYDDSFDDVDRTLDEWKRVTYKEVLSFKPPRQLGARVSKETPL
The experiment is described as follows: Inhibition of p38gamma (unknown origin) at 10 uM by Ambit Kinomescan binding assay relative to control; values are per cent of control.

Experiment [13] deals with Tyrosine-protein kinase BTK (Homo sapiens) (UniProt Q06187). The experiment is described as follows: Inhibition of BTK (unknown origin) at 10 uM by Ambit Kinomescan binding assay.

Structures are written as SMILES. Active and inactive are the calls of the source. The calls are words filed in the database; no cut-off is given here.

Sequence of Cyclin-dependent kinase 1 (Homo sapiens) (P06493 whole entry, looked up, the tested form may be a part): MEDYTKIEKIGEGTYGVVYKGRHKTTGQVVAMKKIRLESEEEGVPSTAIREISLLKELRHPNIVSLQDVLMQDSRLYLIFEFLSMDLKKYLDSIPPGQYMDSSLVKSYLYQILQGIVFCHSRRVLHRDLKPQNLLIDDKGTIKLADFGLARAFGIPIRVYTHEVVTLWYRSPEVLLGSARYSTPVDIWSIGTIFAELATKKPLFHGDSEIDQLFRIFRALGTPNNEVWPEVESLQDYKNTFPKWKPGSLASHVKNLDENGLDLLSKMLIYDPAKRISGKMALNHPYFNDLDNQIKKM
Sequence of Glycogen synthase kinase-3 alpha (Homo sapiens) (P49840 2-483 limits assumed): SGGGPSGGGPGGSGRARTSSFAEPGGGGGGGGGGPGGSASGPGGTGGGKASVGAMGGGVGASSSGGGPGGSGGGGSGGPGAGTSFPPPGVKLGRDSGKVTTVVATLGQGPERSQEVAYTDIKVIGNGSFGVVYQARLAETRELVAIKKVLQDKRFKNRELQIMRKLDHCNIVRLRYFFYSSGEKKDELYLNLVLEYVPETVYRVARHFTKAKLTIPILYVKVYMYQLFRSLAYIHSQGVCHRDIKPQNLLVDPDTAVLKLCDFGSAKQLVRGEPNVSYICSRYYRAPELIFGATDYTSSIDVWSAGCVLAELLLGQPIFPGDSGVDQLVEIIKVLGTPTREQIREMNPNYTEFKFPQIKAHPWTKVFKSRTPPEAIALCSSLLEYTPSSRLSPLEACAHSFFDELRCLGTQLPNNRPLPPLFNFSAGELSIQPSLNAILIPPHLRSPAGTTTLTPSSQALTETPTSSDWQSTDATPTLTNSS
Sequence of Serine/threonine-protein kinase 33 (Homo sapiens) (Q9BYT3 whole entry, looked up): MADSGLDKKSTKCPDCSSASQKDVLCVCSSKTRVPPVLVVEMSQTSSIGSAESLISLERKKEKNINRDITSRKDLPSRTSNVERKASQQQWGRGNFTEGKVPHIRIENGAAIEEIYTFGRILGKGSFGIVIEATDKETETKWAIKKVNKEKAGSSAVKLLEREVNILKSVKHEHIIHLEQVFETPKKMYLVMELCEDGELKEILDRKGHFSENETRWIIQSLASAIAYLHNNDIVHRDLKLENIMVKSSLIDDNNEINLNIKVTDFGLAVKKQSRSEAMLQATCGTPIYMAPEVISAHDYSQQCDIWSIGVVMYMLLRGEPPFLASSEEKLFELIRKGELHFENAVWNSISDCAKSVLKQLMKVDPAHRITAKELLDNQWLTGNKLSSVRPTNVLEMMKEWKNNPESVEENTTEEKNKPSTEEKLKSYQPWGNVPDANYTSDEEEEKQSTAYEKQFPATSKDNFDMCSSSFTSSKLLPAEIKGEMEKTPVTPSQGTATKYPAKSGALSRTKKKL
Sequence of Serine/threonine-protein kinase PLK1 (Homo sapiens) (P53350 whole entry): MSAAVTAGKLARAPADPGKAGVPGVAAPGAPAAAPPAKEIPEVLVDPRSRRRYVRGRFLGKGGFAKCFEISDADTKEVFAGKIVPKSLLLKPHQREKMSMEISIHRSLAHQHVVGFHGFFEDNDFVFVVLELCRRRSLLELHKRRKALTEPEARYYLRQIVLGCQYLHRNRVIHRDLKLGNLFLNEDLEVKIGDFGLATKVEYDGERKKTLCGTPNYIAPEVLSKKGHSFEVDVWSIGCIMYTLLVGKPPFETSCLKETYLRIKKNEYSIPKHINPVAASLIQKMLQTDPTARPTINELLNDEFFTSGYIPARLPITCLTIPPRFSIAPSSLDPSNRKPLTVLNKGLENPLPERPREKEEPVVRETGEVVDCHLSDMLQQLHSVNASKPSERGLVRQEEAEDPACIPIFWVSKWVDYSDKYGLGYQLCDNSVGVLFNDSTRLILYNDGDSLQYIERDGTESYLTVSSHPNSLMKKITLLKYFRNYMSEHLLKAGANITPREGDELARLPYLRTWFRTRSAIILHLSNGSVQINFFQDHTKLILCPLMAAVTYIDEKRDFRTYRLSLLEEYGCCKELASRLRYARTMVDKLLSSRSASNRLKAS
Sequence of Calcium/calmodulin-dependent protein kinase type II subunit gamma (Homo sapiens) (Q13555 whole entry): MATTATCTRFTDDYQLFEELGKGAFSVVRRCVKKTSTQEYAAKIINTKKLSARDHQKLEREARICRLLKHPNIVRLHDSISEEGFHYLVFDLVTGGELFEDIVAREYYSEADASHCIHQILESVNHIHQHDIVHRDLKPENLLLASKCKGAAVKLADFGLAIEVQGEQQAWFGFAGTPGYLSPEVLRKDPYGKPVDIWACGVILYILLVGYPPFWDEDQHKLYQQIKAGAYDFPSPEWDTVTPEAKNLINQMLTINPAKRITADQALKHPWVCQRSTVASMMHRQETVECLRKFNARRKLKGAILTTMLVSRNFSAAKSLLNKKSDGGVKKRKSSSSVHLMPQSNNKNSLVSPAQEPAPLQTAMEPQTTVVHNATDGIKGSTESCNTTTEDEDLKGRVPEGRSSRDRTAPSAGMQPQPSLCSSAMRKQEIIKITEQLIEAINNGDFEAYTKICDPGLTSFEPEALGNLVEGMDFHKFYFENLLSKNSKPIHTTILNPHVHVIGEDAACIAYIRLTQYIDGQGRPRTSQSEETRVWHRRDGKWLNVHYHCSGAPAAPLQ
Sequence of Calcium/calmodulin-dependent protein kinase kinase 2 (Homo sapiens) (Q96RR4 2-588 limits assumed): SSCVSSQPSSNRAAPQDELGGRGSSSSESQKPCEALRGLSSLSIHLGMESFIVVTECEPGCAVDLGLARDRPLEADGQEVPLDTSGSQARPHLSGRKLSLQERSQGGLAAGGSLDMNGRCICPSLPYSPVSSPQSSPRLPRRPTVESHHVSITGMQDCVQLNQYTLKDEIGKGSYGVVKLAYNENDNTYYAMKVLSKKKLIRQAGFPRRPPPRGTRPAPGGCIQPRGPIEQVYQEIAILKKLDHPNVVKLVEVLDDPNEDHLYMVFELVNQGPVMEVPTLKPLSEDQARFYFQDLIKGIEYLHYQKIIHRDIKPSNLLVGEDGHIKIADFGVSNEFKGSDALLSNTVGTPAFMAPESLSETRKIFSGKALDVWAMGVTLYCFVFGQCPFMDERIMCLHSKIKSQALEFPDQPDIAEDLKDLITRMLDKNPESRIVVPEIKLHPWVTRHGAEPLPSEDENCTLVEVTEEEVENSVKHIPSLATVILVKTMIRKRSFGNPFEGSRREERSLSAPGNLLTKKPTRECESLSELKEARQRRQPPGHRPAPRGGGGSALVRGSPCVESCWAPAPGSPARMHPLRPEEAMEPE
Sequence of Tyrosine-protein kinase BTK (Homo sapiens) (Q06187 whole entry): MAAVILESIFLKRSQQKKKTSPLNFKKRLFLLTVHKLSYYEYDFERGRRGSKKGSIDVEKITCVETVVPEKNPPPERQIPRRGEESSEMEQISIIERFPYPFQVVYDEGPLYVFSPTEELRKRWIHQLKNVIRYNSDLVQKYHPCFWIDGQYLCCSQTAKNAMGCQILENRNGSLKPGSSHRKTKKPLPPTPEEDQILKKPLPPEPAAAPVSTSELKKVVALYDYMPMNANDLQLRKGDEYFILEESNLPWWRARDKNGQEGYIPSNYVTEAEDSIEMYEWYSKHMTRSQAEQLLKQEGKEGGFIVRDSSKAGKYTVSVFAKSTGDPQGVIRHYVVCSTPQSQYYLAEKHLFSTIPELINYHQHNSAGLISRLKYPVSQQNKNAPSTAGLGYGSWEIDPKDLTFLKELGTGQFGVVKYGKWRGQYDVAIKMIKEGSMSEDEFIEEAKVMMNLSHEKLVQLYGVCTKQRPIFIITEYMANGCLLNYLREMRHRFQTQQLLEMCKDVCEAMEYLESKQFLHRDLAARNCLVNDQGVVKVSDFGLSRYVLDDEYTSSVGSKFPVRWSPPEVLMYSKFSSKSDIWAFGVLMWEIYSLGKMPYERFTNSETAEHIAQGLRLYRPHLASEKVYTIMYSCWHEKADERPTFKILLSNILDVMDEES
Sequence of Ribosomal protein S6 kinase alpha-2 (Homo sapiens) (Q15349 whole entry, the tested form may be a part, canonical isoform): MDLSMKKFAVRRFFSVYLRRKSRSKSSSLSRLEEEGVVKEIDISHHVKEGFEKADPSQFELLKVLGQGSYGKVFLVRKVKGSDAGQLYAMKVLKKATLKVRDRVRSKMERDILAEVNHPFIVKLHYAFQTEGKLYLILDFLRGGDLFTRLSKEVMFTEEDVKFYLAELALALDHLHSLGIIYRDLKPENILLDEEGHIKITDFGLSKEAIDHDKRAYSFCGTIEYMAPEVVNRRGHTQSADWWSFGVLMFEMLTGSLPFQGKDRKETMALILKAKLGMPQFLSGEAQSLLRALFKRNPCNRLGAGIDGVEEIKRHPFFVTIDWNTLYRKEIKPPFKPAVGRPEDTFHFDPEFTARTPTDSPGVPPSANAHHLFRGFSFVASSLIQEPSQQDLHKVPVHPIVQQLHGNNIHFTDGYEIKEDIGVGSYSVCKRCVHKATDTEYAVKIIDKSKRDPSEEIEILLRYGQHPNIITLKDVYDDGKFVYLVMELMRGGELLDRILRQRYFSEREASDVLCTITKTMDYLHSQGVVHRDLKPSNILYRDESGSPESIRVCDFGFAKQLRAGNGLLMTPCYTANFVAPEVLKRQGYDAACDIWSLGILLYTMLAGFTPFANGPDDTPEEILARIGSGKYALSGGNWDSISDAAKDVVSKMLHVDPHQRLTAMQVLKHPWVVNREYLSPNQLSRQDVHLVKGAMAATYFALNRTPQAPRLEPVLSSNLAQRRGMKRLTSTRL

One may read the inhibition as the change of the read-out against control, counted positive when it falls. `CNc1cc(Oc2cc(C(=O)Nc3cc(N4CCN(C)CC4)cc(C(F)(F)F)c3)ccc2C)ncn1`: the inhibition in [1] was -5.8%; in experiment [2] it was 0.4%; in [3] it was 9.3%.
With `CCN1CCN(Cc2ccc(NC(=O)c3ccc(C)c(/C=C/c4cnc5[nH]ccc5c4OC)c3)cc2C(F)(F)F)CC1`, the inhibition in experiment [4] came out at 13%; in experiment [5], 18%; in experiment [6], 3.5%; in experiment [7], 78%.
As for `CCN1CCN(Cc2ccc(NC(=O)c3ccc(C)c(Oc4ccnc5[nH]ccc45)c3)cc2C(F)(F)F)CC1`, the inhibition amounted to 0.6% in experiment [8] and 17.6% in experiment [11]. Besides, the inhibition result in experiment [9], in [10] and in [13] was “inactive” each time. For the same compound, the percent of control in [12] came out at 0%.
